The results in this text go back to BindingDB's records for doi:10.1016/s0960-894x(01)00397-3 (Glaxosmithkline, 2001).

For the assay, the target named is C-C chemokine receptor type 2 (Homo sapiens, UniProt P41597). Briefly: Inhibition of [125I]MCP-1 binding to the cloned C-C chemokine receptor type 2B expressed in CHO cells.

The structures appear in SMILES notation.

Sequence of C-C chemokine receptor type 2 (P41597 whole entry): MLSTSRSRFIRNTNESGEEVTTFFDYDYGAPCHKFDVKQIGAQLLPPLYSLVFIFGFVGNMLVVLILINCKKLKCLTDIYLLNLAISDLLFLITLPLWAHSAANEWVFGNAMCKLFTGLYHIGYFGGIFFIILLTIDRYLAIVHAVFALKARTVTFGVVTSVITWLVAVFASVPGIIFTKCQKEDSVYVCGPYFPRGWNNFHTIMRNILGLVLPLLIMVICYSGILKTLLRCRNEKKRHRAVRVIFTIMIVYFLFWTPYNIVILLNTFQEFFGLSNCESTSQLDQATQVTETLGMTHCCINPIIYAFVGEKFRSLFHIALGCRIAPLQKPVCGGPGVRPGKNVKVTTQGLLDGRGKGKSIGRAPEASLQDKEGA

With `O=C(/C=C/c1ccc(Cl)c(Cl)c1)N[C@H]1CC[C@H](CN2CCC(c3c[nH]c4ccc(O)cc34)CC2)CC1` [3-(3,4-dichlorophenyl)-N-((1r,4r)-4-((4-(5-hydroxy-1H-indol-3-yl)piperidin-1-yl)methyl)cyclohexyl)acrylamide], affinity was put at a Ki of 316 nM.
